Assay results as given in patent US20040220268A1, “Compound that directly stimulates phospholipase C activity” (priority 2003, published 2004).

Molecular target: T1, PLC γ1 (Homo sapiens, UniProt P19174)
T1 sequence (P19174 1-1290): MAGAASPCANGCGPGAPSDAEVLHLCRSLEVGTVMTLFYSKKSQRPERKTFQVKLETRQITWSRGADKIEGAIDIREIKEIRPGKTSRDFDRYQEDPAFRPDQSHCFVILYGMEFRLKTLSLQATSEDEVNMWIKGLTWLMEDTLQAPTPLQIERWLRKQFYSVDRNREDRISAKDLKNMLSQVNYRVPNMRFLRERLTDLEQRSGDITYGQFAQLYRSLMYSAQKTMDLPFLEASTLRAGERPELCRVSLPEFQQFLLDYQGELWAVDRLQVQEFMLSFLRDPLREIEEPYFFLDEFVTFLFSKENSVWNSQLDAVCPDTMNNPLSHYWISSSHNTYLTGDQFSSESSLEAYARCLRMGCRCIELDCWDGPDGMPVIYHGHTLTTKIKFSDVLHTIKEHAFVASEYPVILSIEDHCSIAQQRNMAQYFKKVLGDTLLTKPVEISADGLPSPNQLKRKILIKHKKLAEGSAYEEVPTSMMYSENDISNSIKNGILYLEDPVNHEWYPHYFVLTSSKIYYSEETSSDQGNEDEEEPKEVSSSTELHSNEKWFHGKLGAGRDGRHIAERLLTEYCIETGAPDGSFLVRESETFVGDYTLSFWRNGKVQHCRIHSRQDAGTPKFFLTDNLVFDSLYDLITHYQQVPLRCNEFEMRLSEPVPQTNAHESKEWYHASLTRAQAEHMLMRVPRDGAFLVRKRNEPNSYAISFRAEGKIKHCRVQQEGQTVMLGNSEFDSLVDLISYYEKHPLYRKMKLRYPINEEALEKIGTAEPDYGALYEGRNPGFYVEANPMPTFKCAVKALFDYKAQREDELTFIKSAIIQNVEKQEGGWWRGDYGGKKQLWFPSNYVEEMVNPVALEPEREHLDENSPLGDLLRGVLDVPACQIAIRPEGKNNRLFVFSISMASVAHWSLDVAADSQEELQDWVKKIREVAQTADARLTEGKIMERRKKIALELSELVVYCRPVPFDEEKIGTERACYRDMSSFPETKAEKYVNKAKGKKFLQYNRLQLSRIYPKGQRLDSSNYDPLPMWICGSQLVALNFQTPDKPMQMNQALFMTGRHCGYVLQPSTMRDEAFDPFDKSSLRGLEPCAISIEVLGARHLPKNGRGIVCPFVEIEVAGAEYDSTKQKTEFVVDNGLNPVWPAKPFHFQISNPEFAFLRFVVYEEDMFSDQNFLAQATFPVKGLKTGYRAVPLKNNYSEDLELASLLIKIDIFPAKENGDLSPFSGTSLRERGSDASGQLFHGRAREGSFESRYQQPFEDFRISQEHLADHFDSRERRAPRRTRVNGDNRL
Experiment: Phosphoinositide hydrolysis in vitro
Assay type: biochemical
Conditions: 25 μM; purified isozyme
Description: The hydrolyzing activity of PtdIns-4,5-P2 was measured on mixed phospholipid vesicles containing 120 μM phosphatidylethanolamine, 30 μM PtdIns-4,5-P2, and 1 μCi/ml [3H] PtdIns-4,5-P2. Purified PLC β2, substrates, and the chemicals (2.5, 5, 10, 20, and 25 μM of m-3M3FBS or of o-3M3FBS) were coincubated (A), 25 μM of m-3M3FBS or o-3M3FBS, and phospholipid substrates were mixed with purified PLC β3, γ1, 2, or δ1 (B). Reactions were performed for 10 min at 37° C. in a 200 μl reaction mixture containing lipid micelles (5 μM [^3H] PtdIns-4,5-P2, 20,000 cpm). Reactions were stopped by adding 1 ml of CHCl3:CH3OH:HCl (50:50:0.3, v/v/v). Inositol trisphosphates were extracted with 0.5 ml of 1 M HCl/5 mM EGTA, and the radioactivity in the upper aqueous phase was measured. Data are presented as means ±S. E. M. of three independent experiments (A, B).
PLC activity was assayed using [^3H] PtdIns-4,5-P2 as a substrate (Min et al., 1993). PtdIns-4,5-P2-hydrolyzing activity was measured with mixed phospholipid micelles containing 120 μM phosphatidylethanolamine, 30 μM PtdIns-4,5-P2, and 1 μCi/ml [^3H] PtdIns-4,5-P2. The lipids, in chloroform, were dried under a stream of nitrogen gas, suspended in assay buffer (20 mM HEPES pH 7.0, 120 mM NaCl, 2 mM MgCl2, 40 or 100 μM CaCl2, and 1 mg/ml bovine albumin serum (Bayer, Leverkusen, Germany)), and sonicated. All proteins added to the reaction mixture were dialyzed overnight against the assay buffer. Incubation was performed for 10 min at 37° C. in a 200 μl reaction mixture containing lipid micelles (5 μM [3H] PtdIns-4,5-P2, 20,000 cpm). The reaction was stopped by adding 2 ml of CHCl3: CH3OH: HCl (50: 50: 0.3, v/v/v). The inositol triphosphates were extracted with 0.5 ml of 1 N HCl, and radioactivities in the upper aqueous phase were measured.

Compound | activity of PLC gamma1
Cc1cc(C)c(S(=O)(=O)Nc2ccccc2C(F)(F)F)c(C)c1 [o-3M3FBS, 2,4,6-Trimethyl-N-(ortho 3-trifluoromethyl-phenyl)-benzenesulfonamide, reference compound] | did not affect
Cc1cc(C)c(S(=O)(=O)Nc2cccc(C(F)(F)F)c2)c(C)c1 [m-3M3FBS, 2,4,6-Trimethyl-N-(meta 3-trifluoromethyl-phenyl)-benzenesulfonamide] | augmented the activity
